According to article PMC3265452 (PLoS Neglected Tropical Diseases, 2012):
Structures can show the parent of a compound that is named as a salt.

molecular target: AaDOP2 (Aedes aegypti, UniProt H6D5H2); assay: AaDOP2 antagonist screen of the LOPAC1280 library (HEK-CRELuc-Aadop2 cells, luminescence); assay type: cell-based; conditions: not given
Sequence (H6D5H2 1-476): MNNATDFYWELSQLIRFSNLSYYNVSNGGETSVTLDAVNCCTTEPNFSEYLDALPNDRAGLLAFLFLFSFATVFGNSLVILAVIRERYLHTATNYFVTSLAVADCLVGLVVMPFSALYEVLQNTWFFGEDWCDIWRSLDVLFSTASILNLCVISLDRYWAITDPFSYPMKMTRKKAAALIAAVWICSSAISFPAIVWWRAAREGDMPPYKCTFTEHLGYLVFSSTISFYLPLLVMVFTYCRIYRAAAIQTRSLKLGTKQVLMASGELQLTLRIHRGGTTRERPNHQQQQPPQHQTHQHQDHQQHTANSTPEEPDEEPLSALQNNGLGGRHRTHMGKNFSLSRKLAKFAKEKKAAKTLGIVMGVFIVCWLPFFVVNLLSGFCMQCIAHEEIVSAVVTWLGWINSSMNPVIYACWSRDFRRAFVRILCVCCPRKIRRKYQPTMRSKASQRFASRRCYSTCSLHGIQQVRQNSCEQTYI

Compound	Compound effect (percent receptor signaling in presence of test compound, relative lux units relative to the SCH23390 control)
COc1ccc(CCN(C)CCCC(C#N)(c2ccc(OC)c(OC)c2)C(C)C)cc1OC.Cl (racemic) [Compound 1252, (±)-Verapamil hydrochloride]	117
Cl.OC1CCCCC1N1CCC(c2ccccc2)CC1 (racemic) [Compound 1259, (±)-Vesamicol hydrochloride]	97
O=C(O)[C@H]1C[C@H](C(=O)O)N1 (relative stereo) [Compound 146, trans-Azetidine-2,4-dicarboxylic acid]	110
C[C@]12CC[C@H](O)CC1=CC[C@@H]1[C@@H]2CC[C@]2(C)C(=O)CC[C@@H]12 (relative stereo) [Compound 381, trans-Dehydroandrosterone]	114
C=CCN1CCC2(C)c3cc(O)ccc3CC1C2C.Cl (single isomer, unassigned; (+)) [Compound 123, (+)-N-Allylnormetazocine hydrochloride]	90
CC1OCC(C[N+](C)(C)C)O1.[I-] (single isomer, unassigned; (+)) [Compound 325, (+)-cis-Dioxolane iodide]	96
CC1C2Cc3ccc(O)cc3C1(C)CCN2CC1CC1 (single isomer, unassigned; (+)) [Compound 341, (+)-Cyclazocine]	86
COc1ccc2c(c1OC)C(=O)OC2C1c2cc3c(cc2CCN1C)OCO3 (single isomer, unassigned; (+)) [Compound 605, (+)-Hydrastine]	122
CC(N)C(O)c1ccc(O)c(O)c1 (single isomer, unassigned; (-)) [Compound 388, (-)-alpha-Methylnorepinephrine]	88
COc1ccc2c3c1OC1C(=O)CC[C@@]4(O)[C@@H](C2)N(CC2CC2)CC[C@]314.Cl (single isomer, unassigned; (-)) [Compound 836, (-)-3-Methoxynaltrexone hydrochloride]	75
O=C(O)c1ccccc1Nc1ccccc1 [Compound 2, N-Phenylanthranilic acid]	100
Cl.NCCCCC(=O)O [Compound 4, 5-Aminovaleric acid hydrochloride]	115
O=C(O)CCCCCCCC(=O)O [Compound 6, Azelaic acid]	107
NCCc1c[nH]c2ccccc12 [Compound 7, Tryptamine hydrochloride]	121
O=C(O)c1cc2cc(F)ccc2[nH]1 [Compound 8, 5-Fluoroindole-2-carboxylic acid]	92
COc1ccc2[nH]c3c(c2c1)CCNC3 [Compound 9, 6-Methoxy-1,2,3,4-tetrahydro-9H-pyrido[3,4b] indole]	116
Nc1nc(SCc2ccc([N+](=O)[O-])cc2)c2ncn([C@@H]3O[C@H](CO)[C@@H](O)[C@H]3O)c2n1 [Compound 10, S-(4-Nitrobenzyl)-6-thioguanosine]	105
Nc1ccncc1 [Compound 12, 4-Aminopyridine]	110
CN1[C@@H]2CC[C@H]1C[C@@H](OC(=O)C(CO)c1ccccc1)C2 (stereo partly shown) [Compound 13, Atropine sulfate]	78
C[N+]1(C)[C@@H]2CC[C@H]1C[C@@H](OC(=O)C(CO)c1ccccc1)C2 (stereo partly shown) [Compound 14, Atropine methyl nitrate]	112

Compound	Compound effect (percent receptor signaling in presence of test compound, relative lux units relative to the SCH23390 control)
NC(N)=NCCCCN=C(N)N [Compound 15, Arcaine sulfate]	122
Cl.NC1(C(=O)O)CC1 [Compound 16, 1-Aminocyclopropanecarboxylic acid hydrochloride]	104
Cl.NCCCCNS(=O)(=O)c1ccc2c(Cl)cccc2c1 [Compound 18, N-(4-Aminobutyl)-5-chloro-2-naphthalenesulfonamide hydrochloride]	97
O=C(O)[C@@H]1CCN1 [Compound 19, L-azetidine-2-carboxylic acid]	115
NC(=O)c1cccc(N)c1 [Compound 21, 3-aminobenzamide]	96
COC(=O)[C@H]1[C@H]2C[C@@H]3c4[nH]c5cc(OC)ccc5c4CCN3C[C@H]2C[C@@H](OC(=O)c2cc(OC)c(OC)c(OC)c2)[C@@H]1OC [Compound 24, Reserpine]	113
NC12CC3CC(CC(C3)C1)C2 [Compound 25, Amantadine hydrochloride]	84
Cn1c(=O)c2[nH]cnc2n(C)c1=O.Cn1c(=O)c2[nH]cnc2n(C)c1=O.NCCN [Compound 26, Aminophylline ethylenediamine]	129
Nc1nc(N)c2nc(CNc3ccc(C(=O)N[C@@H](CCC(=O)O)C(=O)O)cc3)cnc2n1 [Compound 28, Aminopterin]	112
CC(=O)NCCc1c[nH]c2ccc(O)cc12 [Compound 29, N-Acetyl-5-hydroxytryptamine]	110
O=C(O)C1=CC(=C(c2ccc(O)c(C(=O)O)c2)c2ccc(O)c(C(=O)O)c2)C=CC1=O [Compound 30, Aurintricarboxylic acid]	132
CCCCC/C=C\C/C=C\C/C=C\C/C=C\CCCC(=O)NCC(=O)O [Compound 32, N-arachidonylglycine]	116
NCCCC(=O)O [Compound 33, GABA]	102
Cc1cn([C@H]2C[C@H](N=[N+]=[N-])[C@@H](CO)O2)c(=O)[nH]c1=O [Compound 34, 3'-Azido-3'-deoxythymidine]	114
CC(=O)OC(C)C[N+](C)(C)C.[Cl-] (stereo not drawn) [Compound 35, Acetyl-beta-methylcholine chloride]	127
Nc1ncn([C@@H]2O[C@H](CO)[C@@H](O)[C@H]2O)c(=O)n1 [Compound 36, 5-azacytidine]	103
CCN(c1nc(N)c(C(=O)NC(=N)N)nc1Cl)C(C)C [Compound 37, 5-(N-Ethyl-N-isopropyl)amiloride]	75
N#CCCN.N#CCCN.O=C(O)/C=C/C(=O)O [Compound 38, 3-Aminopropionitrile fumarate]	100
O=c1cc(-c2ccc(O)cc2)oc2cc(O)cc(O)c12 [Compound 39, Apigenin]	21

same assay, conditions: 10 µM compound, 300 nM dopamine, 2 hr; hit = compound effect <20

Compound	Compound effect (percent receptor signaling in presence of test compound, relative lux units relative to the SCH23390 control) [%]
C=CC(N)CCC(=O)O (racemic) [Compound 1256, (±)-gamma-Vinyl GABA]	108
CC[C@@H]1Cc2cc(O)ccc2C2=C1c1ccc(O)cc1C[C@H]2CC (relative stereo) [Compound 423, (R,R)-cis-Diethyl tetrahydro-2,8-chrysenediol]	40
Nc1ncnc2c1nc(Sc1ccc(Cl)cc1)n2C1OC2COP(=O)(O)O[C@H]2C1O (stereo in doubt) [Compound 251, 8-(4-Chlorophenylthio)-cAMP sodium]	97
NC(=S)c1ccc[n+]([C@@H]2OC(COP(=O)([O-])OP(=O)(O)OC[C@H]3O[C@@H](n4cnc5c(N)ncnc54)[C@H](OP(=O)(O)O)[C@@H]3O)C(O)C2O)c1 (stereo in doubt) [Compound 1183, Thio-NADP sodium]	84
Brc1ccc([C@H]2CN3CCSC3=N2)cc1.O=C(O)C(=O)O [Compound 3, S(-)-p-Bromotetramisole oxalate]	106
CCN(CC)CCCCCCCCOC(=O)c1cc(OC)c(OC)c(OC)c1.Cl [Compound 11, TMB-8 hydrochloride]	98
CC(N)=O [Compound 17, Acetamide]	108
Cl.Nc1cc(Cl)c(N=C2NCCN2)c(Cl)c1 [Compound 20, p-Aminoclonidine hydrochloride]	79
Nc1ccc2c3c(cccc13)C(=O)NC2=O [Compound 23, 4-Amino-1,8-naphthalimide]	104
[N-]=[N+]=Nc1ccc(C(=O)CSC[C@H](NC(=O)CC[C@H](N)C(=O)O)C(=O)NCC(=O)O)cc1 [Compound 27, S-(p-Azidophenacyl)glutathione]	105
